According to patent US11390597B2, “Salt and solid state forms of escitalopram” (priority 2017, dated 2022):

What was measured:
[1] = Treatment of human subjects with escitalopram gentisate composition; type: in vivo; conditions: human subject afflicted with a neuropsychiatric disorder, periodic administration (IV, oral, subcutaneous)
Excerpt: Periodic administration is meant to include inter alia IV, oral and subcutaneous administration.

[2] = Comparative pharmacokinetics of escitalopram salts, IV and SC administration in rats; type: in vivo; conditions: Sprague dawley rats, single IV dose 1 mg/kg or SC dose 5 mg/kg, blood analyzed for escitalopram
Protocol: Escitalopram salt solutions are prepared for intravenous (IV) and/or subcutaneous (SC) administration as follows: A 1 mg/kg solution of escitalopram oxalate (Ox-Esc) is prepared for IV administration at 1 mL/kg in 10% DMSO, 30% Solutol® (polyoxyethylated 12-hydroxystearic acid), 60% PBS.
A 1 mg/kg solution of escitalopram pamoate (P-Esc) is prepared for IV administration 1 mL/kg in 10% DMSO, 30% Solutol®, 60% PBS, and for SC administration 200 uL of 5 mg/kg in DMSO.
The pharmacokinetics of IV administered escitalopram oxalate are determined as follows. […] Blood is collected from rats post dose in EDTA K2 tubes in a staggered design (cohort 1: 0 min, 30 min, 4 hr, 24 hr; cohort 2: 5 min, 1 hr, 8 hr, 36 hr; cohort 3: 15 min, 2 hr, 12 hr, 48 hr) and analyzed for escitalopram.
The pharmacokinetics of IV administered escitalopram pamoate are determined as follows. […] Blood is collected from rats post dose in EDTA K2 tubes in a staggered design (cohort 1: 0 min, 30 min, 4 hr, 24 hr; cohort 2: 5 min, 1 hr, 8 hr, 36 hr; cohort 3: 15 min, 2 hr, 12 hr, 48 hr) and analyzed for escitalopram.
The pharmacokinetics of SC administered escitalopram pamoate are determined as follows. […] Blood is collected from rats post dose in EDTA K2 tubes in a staggered design (cohort 1: 0 min, 1 hr, 8 hr, 48 hr; cohort 2: 5 min, 2 hr, 24 hr, 72 hr; cohort 3: 30 min, 4 hr, 36 hr, 96 hr) and analyzed for escitalopram. […]

Compound: CN(C)CCCC1(c2ccc(F)cc2)OCc2cc(C#N)ccc21.O=C(O)c1cc(O)ccc1O (centres unmarked) [escitalopram gentisate]
- reducing or eliminating the symptoms of the neuropsychiatric disorder [1]: clinically meaningful advantage in reducing or eliminating the symptoms
- pharmacokinetic profile compared with pamoate and oxalate salts [2]: distinct from those of the pamoate and oxalate salts
